By IC50 is commonly meant the concentration that gives 50% inhibition.

One test has as its system HIV-1 (strain IIIB). Kind of test: MT4 cell assay: antiviral HIV activity (HIV-induced cytopathic effect). It counts as cell-based. To be noted: Human immunodeficiency virus 1, IIIB, control and standard, propidium iodide readout, tested 0.01 to 1 μM in every assay, read-out: expected range of IC50 values. As to the method: Antiviral HIV activity and compound-induced cytotoxicity were measured in parallel by means of a propidium iodide based procedure in the human T-cell lymphotropic virus transformed cell line MT4. Aliquots of the test compounds were serially diluted in medium (RPMI 1640, 10% fetal calf serum (FCS), and gentamycin) in 96-well plates (Costar 3598) using a Cetus Pro/Pette. Exponentially growing MT4 cells were harvested and centrifuged at 1000 rpm for 10 min in a Jouan centrifuge (model CR 4 12). Cell pellets were resuspended in fresh medium (RPMI 1640, 20% FCS, 20% IL-2, and gentamycin) to a density of 5×10^5 cells/ml. Cell aliquots were infected by the addition of HIV-1 (strain IIIB) diluted to give a viral multiplicity of infection of 100×TCID50. […]
For propidium iodide readout, 27 μl of 5% Nonidet-40 was added to each well of the incubation plate. […] The plates were analyzed in an automated assay instrument (Screen Machine, Idexx Laboratories). […]
For MTS readout, 20 μl CellTiter 96 AQ One Solution reagent (Promega #G3582) was added to each well. At 75 minutes following the addition of MTS reagent, absorbance was read at […] using a Tecan Sunrise 96-well plate reader. […]
For each assay plate, the results (relative fluorescence units, rfU, or OD values) of wells containing uninfected cells or infected cells with no compound were averaged, respectively. […]

For a further test, the system named is Pseudotyped HIV vector. Put plainly: Pseudotyped HIV vector expressing luciferase reporter assay. It counts as cell-based. Conditions: Human immunodeficiency virus 1. Here is the method:
Pseudotyped HIV Vector Expressing Luciferase Reporter Assay
Expression of luciferase reporter following viral integration was performed essentially as described in Jármy, G. et al., J. Medical Virology, 64:223-231, 2001.
A general note: A reporter such as luciferase makes a cellular process visible.

Where only a bound is given, the exact number is not on record here.

For `Cc1cn([C@H]2C[C@H](N=[N+]=[N-])[C@@H](CO)O2)c(=O)[nH]c1=O` [3′-azido-3′-deoxythymidine], the IC50 in the test with HIV-1 (strain IIIB) lay in the range of 40 to 120 nM. Consider `CN(C)C(=O)Cn1c(=O)c(C(=O)NCCN2CCOCC2)c(O)c2ncc(Cc3ccc(F)cc3)cc21` [Example 91, 1-[2-(Dimethylamino)-2-oxoethyl]-7-[(4-fluorophenyl)methyl]-4-hydroxy-N-[2-(4-morpholinyl)ethyl]-2-oxo-1,2-dihydro-1,5-naphthyridine-3-carboxamide], for which the IC50 with Pseudotyped HIV vector is 10 to 25 nM.

Take `COCCNC(=O)c1c(O)c2ncc(Cc3ccc(F)cc3)cc2n(CC(=O)N(C)CCOC)c1=O` [Example 104, 7-[(4-Fluorophenyl)methyl]-4-hydroxy-1-(2-{methyl[2-(methyloxy)ethyl]amino}-2-oxoethyl)-N-[2-(methyloxy)ethyl]-2-oxo-1,2-dihydro-1,5-naphthyridine-3-carboxamide]: the IC50 with Pseudotyped HIV vector was under 10 nM. With `COCCNC(=O)c1c(O)c2ncc(Cc3ccccc3)cc2n(Cc2nccn2C)c1=O` [Example 50, 7-Benzyl-4-hydroxy-N-(2-methoxyethyl)-1-[(1-methyl-1H-imidazol-2-yl)methyl]-2-oxo-1,2-dihydro-1,5-naphthyridine-3-carboxamide], the IC50 in the test on Pseudotyped HIV vector was under 10 nM. `COCCNC(=O)c1c(O)c2ncc(Cc3ccccc3)cc2[nH]c1=O` [Example 17] displayed an IC50 in the test with Pseudotyped HIV vector of 10 to 25 nM. Consider `CC(C)(CO)CNC(=O)c1c(O)c2ncc(Cc3ccc(F)cc3)cc2[nH]c1=O` [Example 85, 7-[(4-Fluorophenyl)methyl]-4-hydroxy-N-(3-hydroxy-2,2-dimethylpropyl)-2-oxo-1,2-dihydro-1,5-naphthyridine-3-carboxamide], for which the IC50 with Pseudotyped HIV vector was under 10 nM.

`COCCNC(=O)c1c(O)c2ncc(Cc3ccc(F)cc3)cc2n(CC(=O)N2CCN(C)CC2)c1=O` [Example 102, 7-[(4-Fluorophenyl)methyl]-4-hydroxy-N-[2-(methyloxy)ethyl]-1-[2-(4-methyl-1-piperazinyl)-2-oxoethyl]-2-oxo-1,2-dihydro-1,5-naphthyridine-3-carboxamide] gave an IC50 with Pseudotyped HIV vector of under 10 nM. The same measure, in the same setting: for `COCCNC(=O)c1c(O)c2ncc(Cc3ccc(F)cc3)cc2n(Cc2ccc(S(C)(=O)=O)cc2)c1=O` [Example 64, 7-(4-Fluorobenzyl)-4-hydroxy-N-(2-methoxyethyl)-1-[4-(methylsulfonyl)benzyl]-2-oxo-1,2-dihydro-1,5-naphthyridine-3-carboxamide] the value was under 10 nM; for `CCN(CC)CCNC(=O)c1c(O)c2ncc(Cc3ccccc3)cc2[nH]c1=O` [N-[2-(Diethylamino)ethyl]-4-hydroxy-2-oxo-7-(phenylmethyl)-1,2-dihydro-1,5-naphthyridine-3-carboxamide, reference compound], over 150 nM; for `O=C(NCCO)c1c(O)c2ncc(Cc3ccc(F)cc3)cc2n(CC(=O)N2CCOCC2)c1=O` [Example 95, 7-[(4-Fluorophenyl)methyl]-4-hydroxy-N-(2-hydroxyethyl)-1-[2-(4-morpholinyl)-2-oxoethyl]-2-oxo-1,2-dihydro-1,5-naphthyridine-3-carboxamide], 10 to 25 nM. The same measure, in the same setting: for `COCCNC(=O)c1c(O)c2ncc(Cc3ccc(F)cc3)cc2n(CC(=O)N2CCOCC2)c1=O` [Example 84, 7-[(4-Fluorophenyl)methyl]-4-hydroxy-N-[2-(methyloxy)ethyl]-1-[2-(4-morpholinyl)-2-oxoethyl]-2-oxo-1,2-dihydro-1,5-naphthyridine-3-carboxamide] the value was under 10 nM. `Cn1c(=O)c(C(=O)NCCCN2CCCC2=O)c(O)c2ncc(Cc3ccc(F)cc3)cc21` [Example 99, 7-[(4-Fluorophenyl)methyl]-4-hydroxy-1-methyl-2-oxo-N-[3-(2-oxo-1-pyrrolidinyl)propyl]-1,2-dihydro-1,5-naphthyridine-3-carboxamide]: the IC50 with Pseudotyped HIV vector is under 10 nM.

`CNC(=O)c1c(O)c2ncc(Cc3ccc(F)cc3)cc2n(CC(=O)N(C)C)c1=O` [Example 237, 1-[2-(Dimethylamino)-2-oxoethyl]-7-(4-fluorobenzyl)-4-hydroxy-N-methyl-2-oxo-1,2-dihydro-1,5-naphthyridine-3-carboxamide] returned an IC50 in the test with Pseudotyped HIV vector of under 10 nM. `COCCN(C)C(=O)Cn1c(=O)c(C(=O)NCC(C)O)c(O)c2ncc(Cc3ccc(F)cc3)cc21` (racemic) [Example 106, (±)-7-[(4-Fluorophenyl)methyl]-4-hydroxy-N-[(2-hydroxypropyl]-1-(2-{methyl[2-(methyloxy)ethyl]amino}-2-oxoethyl)-2-oxo-1,2-dihydro-1,5-naphthyridine-3-carboxamide] gave an IC50 in the test on Pseudotyped HIV vector of under 10 nM. As for `COCCNC(=O)c1c(O)c2ncc(Cc3ccc(F)cc3)cc2n(CC(N)=O)c1=O` [Example 162, 1-(2-Amino-2-oxoethyl)-7-[(4-fluorophenyl)methyl]-4-hydroxy-N-[2-(methyloxy)ethyl]-2-oxo-1,2-dihydro-1,5-naphthyridine-3-carboxamide], in the test with Pseudotyped HIV vector, the IC50 is under 10 nM. `COCCNC(=O)c1c(O)c2ncc(Cc3ccc(F)cc3)cc2n(CCN2CCCC2=O)c1=O` [Example 49, 7-(4-Fluorobenzyl)-4-hydroxy-N-(2-methoxyethyl)-2-oxo-1-[2-(2-oxopyrrolidin-1-yl)ethyl]-1,2-dihydro-1,5-naphthyridine-3-carboxamide] registered an IC50 in the test with Pseudotyped HIV vector of under 10 nM.

As for `COCCNC(=O)c1c(O)c2ncc(Cc3ccc(F)cc3)cc2n(C)c1=O` [Example 98, 7-[(4-Fluorophenyl)methyl]-4-hydroxy-1-methyl-N-[2-(methyloxy)ethyl]-2-oxo-1,2-dihydro-1,5-naphthyridine-3-carboxamide], the IC50 in the test with Pseudotyped HIV vector is under 10 nM. Still for that read-out and setting: for `C[C@@H](O)CNC(=O)c1c(O)c2ncc(Cc3ccc(F)cc3)cc2n(CCN2CCCC2=O)c1=O` [Example 429, 7-(4-Fluorobenzyl)-4-hydroxy-N-[(2R)-2-hydroxypropyl]-2-oxo-1-[2-(2-oxopyrrolidin-1-yl)ethyl]-1,2-dihydro-1,5-naphthyridine-3-carboxamide] the value was under 10 nM; for `O=C(NC1CC1)c1c(O)c2ncc(Cc3ccc(F)cc3)cc2n(CCN2CCCC2=O)c1=O` [Example 9, N-Cyclopropyl-7-(4-fluorobenzyl)-4-hydroxy-2-oxo-1-[2-(2-oxopyrrolidin-1-yl)ethyl]-1,2-dihydro-1,5-naphthyridine-3-carboxamide], under 10 nM; for `Cn1c(=O)c(C(=O)NCCN2CCOCC2)c(O)c2ncc(Cc3ccc(F)cc3)cc21` [Example 96, 7-[(4-Fluorophenyl)methyl]-4-hydroxy-1-methyl-N-[2-(4-morpholinyl)ethyl]-2-oxo-1,2-dihydro-1,5-naphthyridine-3-carboxamide], under 10 nM. For the compound `Cn1c(=O)c(C(=O)NCCO)c(O)c2ncc(Cc3ccc(F)cc3)cc21` [Example 101, 7-[(4-Fluorophenyl)methyl]-4-hydroxy-N-(2-hydroxyethyl)-1-methyl-2-oxo-1,2-dihydro-1,5-naphthyridine-3-carboxamide], the IC50 in the test with Pseudotyped HIV vector is under 10 nM. The same measure, in the same setting: for `O=C(NCCCN1CCCC1=O)c1c(O)c2ncc(Cc3ccc(F)cc3)cc2[nH]c1=O` [Example 28] the value was under 10 nM.

The values are drawn from patent US8691991B2 (priority 2004, dated 2014).
